Activity calls are given as the source filed them. The calls are words filed in the database; no cut-off is given here.
Target: T1, Lysine-specific demethylase 4C (Homo sapiens) (UniProt Q9H3R0)
T1 sequence (whole entry): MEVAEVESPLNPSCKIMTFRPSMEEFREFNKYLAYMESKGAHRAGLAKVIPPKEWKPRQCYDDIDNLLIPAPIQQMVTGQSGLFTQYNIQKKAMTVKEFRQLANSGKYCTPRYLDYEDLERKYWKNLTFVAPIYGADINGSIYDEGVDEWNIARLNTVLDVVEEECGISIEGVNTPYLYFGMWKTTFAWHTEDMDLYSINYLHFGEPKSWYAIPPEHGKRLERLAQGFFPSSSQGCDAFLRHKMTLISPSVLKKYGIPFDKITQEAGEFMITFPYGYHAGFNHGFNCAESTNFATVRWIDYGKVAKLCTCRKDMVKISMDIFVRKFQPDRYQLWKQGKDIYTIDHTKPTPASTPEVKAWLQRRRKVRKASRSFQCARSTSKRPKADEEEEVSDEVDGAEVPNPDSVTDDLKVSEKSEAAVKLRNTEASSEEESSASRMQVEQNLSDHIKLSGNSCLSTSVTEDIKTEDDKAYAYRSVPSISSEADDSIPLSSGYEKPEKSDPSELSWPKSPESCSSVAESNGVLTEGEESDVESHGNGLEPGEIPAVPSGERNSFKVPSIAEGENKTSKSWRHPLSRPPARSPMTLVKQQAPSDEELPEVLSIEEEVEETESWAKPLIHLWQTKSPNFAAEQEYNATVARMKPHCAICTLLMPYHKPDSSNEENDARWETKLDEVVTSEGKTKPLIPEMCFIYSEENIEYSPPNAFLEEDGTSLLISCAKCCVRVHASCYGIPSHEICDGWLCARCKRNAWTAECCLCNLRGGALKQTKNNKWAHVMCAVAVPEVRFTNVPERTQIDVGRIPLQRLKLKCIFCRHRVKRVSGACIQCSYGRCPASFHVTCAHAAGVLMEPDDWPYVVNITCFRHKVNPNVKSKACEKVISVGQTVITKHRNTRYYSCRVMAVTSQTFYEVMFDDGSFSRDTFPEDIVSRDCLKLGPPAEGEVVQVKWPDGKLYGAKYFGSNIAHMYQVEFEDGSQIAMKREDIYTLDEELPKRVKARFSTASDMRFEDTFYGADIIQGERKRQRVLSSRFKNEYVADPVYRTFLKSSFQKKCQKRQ
Conditions: 500 uM
Description: Inhibition of KDM4C catalytic core-mediated demethylation of ARK(Me)3STGGK at 500 uM after 30 mins by FDH-coupled assay in presence of increasing concentration of Fe(II) ions

| Structure (SMILES) | inhibition |
| --- | --- |
| COC(=O)c1n[nH]c(C(=O)OC)c1O | inactive |

Target: Alcohol dehydrogenase class-3 (Homo sapiens) (UniProt P11766)
Assay: Inhibition of FDH using formalin as substrate at 0.01 to 500 uM after 30 mins by fluorimetry
Conditions: not given

Sequence of Alcohol dehydrogenase class-3 (Homo sapiens) (P11766 2-374 limits assumed): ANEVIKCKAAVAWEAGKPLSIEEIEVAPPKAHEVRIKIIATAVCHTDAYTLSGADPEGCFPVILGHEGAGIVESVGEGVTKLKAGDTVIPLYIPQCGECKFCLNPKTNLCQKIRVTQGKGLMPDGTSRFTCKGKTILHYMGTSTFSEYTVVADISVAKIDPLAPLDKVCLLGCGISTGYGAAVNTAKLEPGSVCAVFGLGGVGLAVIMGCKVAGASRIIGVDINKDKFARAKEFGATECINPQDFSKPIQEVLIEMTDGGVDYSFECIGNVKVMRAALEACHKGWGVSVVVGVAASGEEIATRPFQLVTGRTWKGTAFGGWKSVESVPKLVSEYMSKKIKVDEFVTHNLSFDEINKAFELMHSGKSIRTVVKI

| Structure (SMILES) | inhibition |
| --- | --- |
| COC(=O)c1n[nH]c(C(=O)OC)c1O | inactive |
| Cc1c(O)c(C=O)nn1-c1ccccc1 | inactive |

Target: Lysine-specific demethylase 6A (Homo sapiens, UniProt O15550)
Assay: Inhibition of KDM6A
Conditions: not given

Sequence of Lysine-specific demethylase 6A (O15550 whole entry): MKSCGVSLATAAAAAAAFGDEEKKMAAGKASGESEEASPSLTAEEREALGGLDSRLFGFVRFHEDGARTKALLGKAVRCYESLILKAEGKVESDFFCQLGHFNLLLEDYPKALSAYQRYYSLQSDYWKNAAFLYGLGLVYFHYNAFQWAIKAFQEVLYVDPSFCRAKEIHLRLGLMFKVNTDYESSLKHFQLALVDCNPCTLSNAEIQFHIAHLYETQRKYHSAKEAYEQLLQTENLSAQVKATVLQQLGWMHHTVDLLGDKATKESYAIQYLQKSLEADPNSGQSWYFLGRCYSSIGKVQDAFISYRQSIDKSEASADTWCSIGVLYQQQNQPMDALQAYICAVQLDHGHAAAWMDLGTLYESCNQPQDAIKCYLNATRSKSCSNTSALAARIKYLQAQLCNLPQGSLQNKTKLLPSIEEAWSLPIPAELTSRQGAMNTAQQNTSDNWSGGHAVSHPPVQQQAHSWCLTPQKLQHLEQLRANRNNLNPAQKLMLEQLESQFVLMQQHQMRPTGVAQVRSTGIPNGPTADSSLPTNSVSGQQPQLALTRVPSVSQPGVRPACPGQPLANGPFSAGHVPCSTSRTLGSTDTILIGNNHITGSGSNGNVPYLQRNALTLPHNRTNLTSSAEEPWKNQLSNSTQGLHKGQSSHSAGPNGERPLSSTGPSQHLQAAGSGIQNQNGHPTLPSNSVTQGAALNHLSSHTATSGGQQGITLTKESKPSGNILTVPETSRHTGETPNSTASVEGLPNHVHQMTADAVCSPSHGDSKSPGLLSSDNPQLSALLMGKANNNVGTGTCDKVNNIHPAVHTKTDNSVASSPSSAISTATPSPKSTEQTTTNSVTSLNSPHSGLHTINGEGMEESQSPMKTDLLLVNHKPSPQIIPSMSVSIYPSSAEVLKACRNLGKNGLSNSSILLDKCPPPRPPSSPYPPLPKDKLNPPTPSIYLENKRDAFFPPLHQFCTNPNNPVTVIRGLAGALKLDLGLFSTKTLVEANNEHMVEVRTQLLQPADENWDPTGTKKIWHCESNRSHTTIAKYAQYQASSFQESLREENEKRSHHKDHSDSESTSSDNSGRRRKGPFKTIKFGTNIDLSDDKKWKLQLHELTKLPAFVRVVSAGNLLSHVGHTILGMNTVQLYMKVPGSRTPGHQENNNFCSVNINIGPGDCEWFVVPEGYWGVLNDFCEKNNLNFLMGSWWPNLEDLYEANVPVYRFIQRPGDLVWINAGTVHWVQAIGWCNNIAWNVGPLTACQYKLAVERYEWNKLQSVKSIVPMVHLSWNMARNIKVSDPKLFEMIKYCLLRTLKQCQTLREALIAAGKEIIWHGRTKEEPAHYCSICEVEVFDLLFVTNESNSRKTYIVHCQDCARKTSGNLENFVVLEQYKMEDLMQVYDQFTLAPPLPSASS

| Structure (SMILES) | IC50 [µM] |
| --- | --- |
| O=C(O)c1ccnc(C(=O)O)c1 | 177 |

Target: T2, Lysine-specific demethylase 4C (Homo sapiens, UniProt Q9H3R0)
T2 sequence (Q9H3R0 whole entry): T1 sequence (whole entry)
Assay: Inhibition of KDM4C catalytic core-mediated demethylation of ARK(Me)3STGGK after 30 mins by FDH-coupled assay
Conditions: not given

| Structure (SMILES) | IC50 [µM] | Ki [µM] |
| --- | --- | --- |
| Cc1c(Cl)[n+]([O-])nn1-c1ccccc1 | > 200 | > 200 |
| Cn1cc(C(=O)O)nn1 | > 200 | > 200 |
| Cn1cc(Br)nc1-c1ccccc1 | > 200 | > 200 |
| Cn1c(Cl)cnc1CO | > 200 | > 200 |
| O=C(O)c1cc([N+](=O)[O-])[nH]n1 | > 200 | > 200 |
| CNC(=O)c1nnn(C)c1O | > 200 | > 200 |
| O=[N+]([O-])c1cnn(-c2ccccc2)c1 | > 200 | > 200 |
| COC(=O)c1n[nH]n(Cc2ccccc2)c1=O | > 200 | > 200 |
| [O-][n+]1nn(Cc2ccccc2)cc1Cl | > 200 | > 200 |
| O=C(O)c1cnnn1-c1ccccc1 | > 200 | > 200 |
| C[n+]1ccnn1-c1ccccc1 | > 200 | > 200 |
| CSc1c(Cl)[n+]([O-])nn1-c1ccccc1 | > 200 | > 200 |
| CN1CN(Cc2ccccc2)C=C1S | > 200 | > 200 |
| [O-][n+]1nn(-c2ccccc2)c(Cl)c1Br | > 200 | > 200 |
| OCC1C(Cl)=NNN1c1ccccc1 (stereo unspecified) | > 200 | > 200 |
| c1cn[nH]c1 [PYRAZOLE] | > 200 | > 200 |
| [O-][n+]1nn(-c2ccccc2)c(Br)c1Cl | > 200 | > 200 |
| O=C(O)c1cc(C(=O)O)[nH]n1 | > 200 | > 200 |
| COc1sc(-c2ccccc2)nc1Cl | > 200 | > 200 |
| Cc1c(O)c(C(=O)c2ccccc2)nn1-c1ccccc1 | > 200 | > 200 |
| CN1C=C(Br)N(O)N1 | > 200 | > 200 |
| Nc1cn(-c2ccccc2)nn1 | > 200 | > 200 |
| [O-][n+]1nn(-c2ccccc2)c(Br)c1Br | > 200 | > 200 |
| C[n+]1nn(Cc2ccccc2)cc1Cl | > 200 | > 200 |
| CCOC(=O)c1nnn(-c2ccccc2)c1NC(C)=O | > 200 | > 200 |
| [O-][n+]1nn(-c2ccccc2)c(CO)c1Cl | > 200 | > 200 |

| Structure (SMILES) | IC50 [µM] | Ki [µM] |
| --- | --- | --- |
| COc1ccc(Cn2nnc(C(=O)O)c2N)cc1 | > 200 | > 200 |
| COn1nnc(C(=O)O)c1C(=O)O | > 200 | > 200 |
| Cc1c(C(=O)O)cnn1C | > 200 | > 200 |
| Cc1nn(C)n(C)c1=S | > 200 | > 200 |
| O=C(O)c1cn(-c2ccccc2)nn1 | > 200 | > 200 |
| [O-][n+]1nn(Cc2ccccc2)c(C(=S)Nc2ccccc2)c1Cl | > 200 | > 200 |
| COC(=O)c1n[nH]c(C(=O)OC)c1O | 30 | 51 |
| Cc1ccc(Cn2cc(C(=O)O)nn2)cc1 | > 200 | > 200 |
| Oc1csc(O)n1 | > 200 | > 200 |
| O=C(O)c1cnn(-c2ccccc2)n1 | > 200 | > 200 |
| Cn1cc(Cl)nc1Cl | > 200 | > 200 |
| Cn1cc(N)nn1 | > 200 | > 200 |
| [O-][n+]1nn(-c2ccccc2)c(Cl)c1Cl | > 200 | > 200 |
| [O-][n+]1nn(Cc2ccccc2)c(Br)c1Br | > 200 | > 200 |
| O=C1CN=C(c2ccccc2)c2cc([N+](=O)[O-])ccc2N1 [NITRAZEPAM] | > 200 | > 200 |
| CCOC(=O)c1[nH]nnc1C | > 200 | > 200 |
| Brc1cn(Cc2ccccc2)nn1 | > 200 | > 200 |
| Cc1ccc(-n2nc(C(=O)c3ccccc3)c(O)c2C)cc1 | > 200 | > 200 |
| OB(O)c1cc[nH]n1 | > 200 | > 200 |
| N#Cc1cccnc1Nc1cccnc1Cl | > 200 | > 200 |
| [O-][n+]1nn(Cc2ccccc2)cc1Br | > 200 | > 200 |
| COc1c(-c2ccccc2)nnn1C | > 200 | > 200 |
| Clc1csc(-c2ccccc2)n1 | > 200 | > 200 |
| O=C(O)c1cc[nH]n1 | > 200 | > 200 |
| Cc1c(O)c(C=O)nn1-c1ccccc1 | 100 | 142 |

Reference: ChEMBL document CHEMBL2069183, “Inhibitor scaffold for the histone lysine demethylase KDM4C (JMJD2C)” (Bioorg Med Chem Lett, 2012)
